Patent US20260265341A1, “EPISYNCHRONS FOR PRECISION MEDICINE” (priority 2022, published 2026)
Marks after values point to notes of the source that are not given here. Primed or numbered codes have the meaning given here. Ends that are not written are not given here. * marks the point of attachment. GW4064″ = FXR ligand, CC(C)c1onc(-c2c(Cl)cccc2Cl)c1COc1ccc(/C=C/c2cccc(C(=O)*)c2)c(Cl)c1; RARβ/γ ligand = not defined here; Decanoyl = CCCCCCCCCC(=O)*; bexarotene″ = RXR ligand; GW4064(3) = FXR ligand; GW7647 = PPARα ligand

Tests used:
Type in all cases: cell-based
[1] = test system: HFF-1 cell line; experiment: Collagen stimulating activity (COL1A1 ELISA of supernatants); conditions: peptide 2 uM, 72 hour, supernatant anti-COL1A1 ELISA
Method: Immodulin peptides have potential untility in the field of cosmetics. HFF-1 cell line from American Type Culture Collection (ATCC) was grown in DMEM Medium containing 10% fetal bovine serum and penicillin-streptomycin at 37° C. in a humidified, 5% CO2 incubator. 2,000 cells/well were plated in a 96-well plate and incubated overnight. 10 ul/well of peptides (2 uM final concentration) were added in quadruplicate wells. After 72 hour incubation with the compound, supernatants were collected and immunoreactivity was measured by ELISA using monoclonal anti-COL1A1 antibody (Abcam, Cambridge, MA). * p<0.05, ** p<0.01 vs no peptide.

[2] = test system: C2C12 myoblast cell line; experiment: C2C12 myoblast differentiation assay (creatine kinase); set-up: CK (units/mg): unit not given here; conditions: for CK (units/mg): peptide(s) 0.66 uM, no free added ligand, 96 h, relative to imm3SVD (=100)
Method: C2C12 myoblast cell line (ATCC, Manassas, VA) was cultured in DMEM medium supplemented with 10% FBS and 1% penicillin/streptomycin. For differentiation, cells were cultured in the same medium, except that 10% FBS was replaced by 2% horse serum. Peptides and NR ligands were added at the indicated concentrations and cells were harvested 96 hours later for assay. Cell extracts were assayed for creatine kinase (CK) per mg protein. CK was measured using the ECPK-100 kit from BioAssay Systems (Hayward, CA). Protein was assayed using the BCA protein assay kit from Thermofisher Scientific (Waltham, MA).

[3] = test system: HuT78; experiment: Cancer cell viability (CellTiterGlo), HuT78; conditions: RXR modulators each at 0.5 uM with peptide imm3A1 0.66 uM, 72 hour; untreated=100
Method: (§1) A375, A549 and HuT78 cancer cell lines was obtained from American Type Culture Collection (ATCC). They were grown in a T-75 flask in DMEM (or IMDM, for HuT78) medium containing 10% fetal bovine serum and penicillin-streptomycin at 37° C. in a humidified, 5% CO2 incubator. Cells (100 µl, 2,000 cells/well; 5,000 cells/well for HuT78) were plated in a 96-well plate and incubated overnight at 37° C. in a humidified, 5% CO2 incubator. Next day, 10 ul/well of compounds were added (quadruplicate wells). After 72 hour incubation with the compound, cell viability was measured in a luminometer by addition of 100 µL/well CellTiterGlo reagent (Promega Inc, Madison, WI) and reading chemiluminescence after 10 mins, as recommended by the manufacturer. Peptide imm3A1 ([…]-[…]) was added at 0.66 uM and RXR modulators, each at 0.5 uM. The results of this experiment are shown below, expressed as percent survival of cells (untreated=100).

[4] = test system: A549; experiment: Cancer cell viability (CellTiterGlo), A549; conditions: RXR modulators each at 0.5 uM with peptide imm3A1 0.66 uM, 72 hour; untreated=100
Method: as §1

[5] = test system: A375; experiment: Cancer cell viability (CellTiterGlo), A375; conditions: RXR modulators each at 0.5 uM with peptide imm3A1 0.66 uM, 72 hour; untreated=100
Method: as §1

Compound: IM3K9: peptide AFNSYELGSKGFYKKKQCRPSKGRKRGFCW
- COL1 ng/ml [1]: 0.57 ± 0.13** ng/ml

Compound: IM3dec: (decanoic)-KKGFYKKKQCRPSKGRKRGFCW, N-lig PPARγ (Decanoyl-KKGFYKKKQCRPSKGRKRGFCW; cysteine pairing not given here)
- COL1 ng/ml [1]: 0.41 ± 0.11* ng/ml

Compound: imm3fxr-bex: fxr-SDKKGFYKKKQCRPSKGRKRGFCWSVDK-[bex]: GW4064 at N-terminus, bexarotene at C-terminus; multisynchron ({GW4064″}-SDKKGFYKKKQCRPSKGRKRGFCWSVDK-{bexarotene″}; cysteine pairing not given here)
- performance in cell culture assays ([2]; single peptide compared with combination of imm3fxr and imm3bex): performs as predicted from the performance of the combination of imm3fxr and imm3bex episynchrons

Compound: CN1c2ccc([N+](=O)[O-])cc2N=C(c2ccc(C(=O)O)cc2)c2cc3c(cc21)C(C)(C)CCC3(C)C [HX531]
- percent survival of cells, HuT78 [3]: 88.1 ± 0.8%
- percent survival of cells, A549 [4]: 89.2 ± 4.1 b percent
- percent survival of cells, A375 [5]: 89.9 ± 1.6 a percent

Compound: CN1c2ccccc2N=C(c2ccc(C(=O)O)cc2)c2cc3c(cc21)C(C)(C)CCC3(C)C [HX600]
- percent survival of cells, HuT78 [3]: 48.7 ± 2.8 a percent
- percent survival of cells, A549 [4]: 60.0 ± 0.6 a percent
- percent survival of cells, A375 [5]: 57.1 ± 0.6 a percent

Compound: IM3: peptide KKGFYKKKQCRPSKGRKRGFCW
- COL1 [1]: 0.28 ± 0.23 ng/mL

Compound: imm3fxr: SDKKGFYKKKQCRPSKGRKRGFCWSVDK with C-lig GW4064 (FXR ligand) (SDKKGFYKKKQCRPSKGRKRGFCWSVDK-{GW4064(3)}; cysteine pairing not given here)
- CK (units/mg) [2]: 136.8 ± 19.6

Compound: imm3decK9adp: multisynchron SAFNSYELGSDKKGFYKKKQCRPSKGRKRGFCWS, N-lig PPARγ, C-lig RARβ/γ (Decanoyl-SAFNSYELGSDKKGFYKKKQCRPSKGRKRGFCWS-{RARβ/γ ligand}; cysteine pairing not given here; reading uncertain)
- COL1 ng/ml [1]: 5.27 ± 0.36** ng/ml

Compound: imm3bex: SDKKGFYKKKQCRPSKGRKRGFCWSVDK with C-lig bexarotene (RXR ligand) (SDKKGFYKKKQCRPSKGRKRGFCWSVDK-{bexarotene″}; cysteine pairing not given here)
- CK (units/mg) [2]: 121.0 ± 6.6

Compound: imm3ppa: SDKKGFYKKKQCRPSKGRKRGFCWSVDK with C-lig GW7647 (PPARα ligand) on C-terminal lysine (SDKKGFYKKKQCRPSKGRKRGFCWSVDK(GW7647); cysteine pairing not given here)
- CK (units/mg) [2]: 155.9 ± 18.8
